Measurements reported in ChEMBL document CHEMBL3044769, “A brief synthesis of natural antifeedant, 1-(2,4,6-trimethoxyphenyl) but-2(E)-en-1-one” (1994).

Tested on: Spodoptera litura
Experiment: Antifeedant activity in Spodoptera litura assessed as feeding ratio at 0.1% of the diet
Type: functional

## C/C=C/C(=O)c1c(OC)cc(OC)cc1OC
  Activity: 50.5%
